Measurements: US20240132513A1, “BENZAZEPINE DERIVATIVES, COMPOSITIONS, AND METHODS FOR TREATING COGNITIVE IMPAIRMENT” (AGENEBIO, INC., priority 2022, published 2024)
Like-named read-outs stand apart in the source and are kept apart here.

Tests used:
GABAA α5 receptor = biological target: T1, GABAA α5 receptor (Rattus norvegicus, UniProt P19969); experiment: GABAA α5 receptor occupancy with Ro 15-4513 tracer; type: in vivo, Long Evans rats; conditions: i.v.
T1 construct: from tissue; host or cells: rat brain in vivo; hippocampus versus cerebellum
T1 sequence (P19969 32-464 limits assumed): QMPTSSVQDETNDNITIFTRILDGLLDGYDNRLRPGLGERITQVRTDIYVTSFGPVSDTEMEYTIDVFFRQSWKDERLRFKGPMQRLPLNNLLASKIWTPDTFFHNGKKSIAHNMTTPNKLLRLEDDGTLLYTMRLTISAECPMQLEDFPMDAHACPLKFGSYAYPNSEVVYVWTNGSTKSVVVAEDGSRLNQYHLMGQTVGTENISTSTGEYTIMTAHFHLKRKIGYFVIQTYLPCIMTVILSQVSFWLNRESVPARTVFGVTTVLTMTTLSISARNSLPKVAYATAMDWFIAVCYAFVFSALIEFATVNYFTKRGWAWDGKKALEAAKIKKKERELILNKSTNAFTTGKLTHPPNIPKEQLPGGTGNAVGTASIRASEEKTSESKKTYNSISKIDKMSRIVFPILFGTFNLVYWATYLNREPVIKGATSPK
Excerpt: Food and water were available ad libitum.

GABAA R (α5β2γ2) = biological target: T2, GABAA R (α5β2γ2) (Homo sapiens, UniProt P18507+P31644); experiment: Positive allosteric modulator activity: potentiation of EC20 GABA current in oocytes; type: cell-based
T2 construct: expressed in transfected cells
T2 sequence (P31644 32-462): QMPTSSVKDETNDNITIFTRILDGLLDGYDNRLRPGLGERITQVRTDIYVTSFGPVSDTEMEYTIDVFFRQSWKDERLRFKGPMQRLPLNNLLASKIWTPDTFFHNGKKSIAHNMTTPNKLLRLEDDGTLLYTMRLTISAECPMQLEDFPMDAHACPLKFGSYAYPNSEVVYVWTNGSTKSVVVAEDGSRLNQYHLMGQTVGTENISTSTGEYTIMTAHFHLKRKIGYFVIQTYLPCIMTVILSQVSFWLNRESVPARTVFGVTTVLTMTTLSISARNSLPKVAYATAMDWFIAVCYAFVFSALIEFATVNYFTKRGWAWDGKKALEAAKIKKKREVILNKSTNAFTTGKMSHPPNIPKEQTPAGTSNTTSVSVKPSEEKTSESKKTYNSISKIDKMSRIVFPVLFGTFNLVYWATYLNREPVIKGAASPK
T2 sequence (P47870 25-512 partner limits assumed): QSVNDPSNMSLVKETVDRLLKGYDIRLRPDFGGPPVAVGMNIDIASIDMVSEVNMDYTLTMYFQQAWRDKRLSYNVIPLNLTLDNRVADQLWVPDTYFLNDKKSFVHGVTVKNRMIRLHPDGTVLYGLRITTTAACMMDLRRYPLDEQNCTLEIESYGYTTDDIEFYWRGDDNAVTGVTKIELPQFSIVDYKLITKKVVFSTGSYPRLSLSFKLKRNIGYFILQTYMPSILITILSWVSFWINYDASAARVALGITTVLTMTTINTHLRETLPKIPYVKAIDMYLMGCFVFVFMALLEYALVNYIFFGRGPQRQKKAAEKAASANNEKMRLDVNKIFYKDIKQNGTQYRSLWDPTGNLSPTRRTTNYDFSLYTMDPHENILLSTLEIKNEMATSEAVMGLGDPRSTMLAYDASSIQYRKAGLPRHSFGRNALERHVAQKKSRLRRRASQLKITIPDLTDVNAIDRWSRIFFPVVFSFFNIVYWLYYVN
T2 sequence (P18507 40-475): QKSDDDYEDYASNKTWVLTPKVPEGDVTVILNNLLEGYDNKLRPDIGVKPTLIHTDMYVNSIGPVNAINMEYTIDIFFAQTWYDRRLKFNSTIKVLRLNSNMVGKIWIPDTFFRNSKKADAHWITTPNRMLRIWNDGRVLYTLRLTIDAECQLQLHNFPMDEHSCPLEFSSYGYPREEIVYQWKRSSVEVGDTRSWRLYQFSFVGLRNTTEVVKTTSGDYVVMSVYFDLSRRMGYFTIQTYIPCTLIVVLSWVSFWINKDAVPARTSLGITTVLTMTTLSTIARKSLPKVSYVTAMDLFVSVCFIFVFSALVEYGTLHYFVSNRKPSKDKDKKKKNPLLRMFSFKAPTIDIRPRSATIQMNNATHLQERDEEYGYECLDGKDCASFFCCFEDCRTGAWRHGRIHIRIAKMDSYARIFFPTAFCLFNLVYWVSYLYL
In short: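 Xenopus oocytes injected with 1 ng α5:β2:γ2 cDNA (1:1:10 by weight), tested day 2, voltage-clamped at −60 mV under MBS superfusion.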

α5β3γ2 GABAA R = α5β3γ2 GABAA R (Homo sapiens, UniProt P18507+P31644); experiment: Binding activity on GABAA R: inhibition of [3H]Ro15-1788 binding, α5 containing receptor
α5β3γ2 GABAA R, sequence (P31644 32-462): as the sequence (P31644 32-462) above
α5β3γ2 GABAA R, sequence (P28472 26-473 partner): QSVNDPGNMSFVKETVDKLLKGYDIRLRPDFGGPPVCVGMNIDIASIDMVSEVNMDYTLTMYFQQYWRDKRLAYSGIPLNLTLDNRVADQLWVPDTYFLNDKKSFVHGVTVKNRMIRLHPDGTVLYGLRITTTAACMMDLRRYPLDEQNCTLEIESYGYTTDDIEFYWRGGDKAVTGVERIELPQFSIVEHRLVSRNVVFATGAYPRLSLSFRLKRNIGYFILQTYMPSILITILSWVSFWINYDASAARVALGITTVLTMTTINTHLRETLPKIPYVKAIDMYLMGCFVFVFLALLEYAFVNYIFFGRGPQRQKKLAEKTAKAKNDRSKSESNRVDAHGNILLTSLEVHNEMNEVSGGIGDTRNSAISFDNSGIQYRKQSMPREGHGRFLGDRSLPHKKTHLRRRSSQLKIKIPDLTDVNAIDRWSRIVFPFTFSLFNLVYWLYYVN
α5β3γ2 GABAA R, sequence (P18507 40-475): as the sequence (P18507 40-475) above
In short: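 Displacement of [3H]Ro15-1788 (flumazenil) measured at 4 °C over 1 h using 0.2 mg/ml membrane protein from Ltk cells carrying α5β3γ2 GABAA receptors, expression induced with 0.5 μM dexamethasone for 1 day; buffer pH 7.4 KH2PO4/EDTA/KCl. 10 μM diazepam defined nonspecific binding; filter-trapped radioactivity counted, in triplicate.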

[1] = read-out: GABA α5 Functional Data: potentiation, @ 100 nM, EC20 GABA, ranges of the column heads
[2] = read-out: GABA α5 Functional Data: potentiation
[3] = ranges of the column heads, [3H]Ro15-1788, Ltk cell membranes

Structure (SMILES)	activation at 0.1 µM (GABAA R (α5β2γ2); [1]) [%]	Ki (α5β3γ2 GABAA R) [nM]	further results
CCOC(=O)c1ncn2c1CN(C)C(=O)c1cc(N=[N+]=[N-])ccc1-2 [Ro 15-4513]	–	–	level of Ro 15-4513 in cerebellum (GABAA α5 receptor; tracer 1 μg/kg, after vehicle): 0.36 ± 0.02 ng/g; level of Ro 15-4513 in hippocampus (GABAA α5 receptor; tracer 1 μg/kg, after vehicle): 1.93 ± 0.05 ng/g; levels of Ro 15-4513 in hippocampus compared with cerebellum (GABAA α5 receptor; tracer 1 μg/kg, after vehicle): > 5 fold
CCOC(=O)c1ncn2c1Cn1c(C)nnc1-c1cc(OC)ccc1-2	–	–	Ro 15-4513 binding in hippocampus (GABAA α5 receptor; 0.01-10 mg/kg): blocked the binding of Ro154513 in the hippocampus; Ro 15-4513 levels/binding in cerebellum (GABAA α5 receptor; 0.01-10 mg/kg): did not affect binding of Ro15413 in the cerebellum
COc1ccc2c(c1)-c1nn(C)cc1Cc1c(-c3noc(COC4CCCC4)n3)ncn1-2 [Compound 297]	5 to 20	< 100	–
COC(C)(C)c1noc(-c2ncn3c2Cc2cn(CC4CCCO4)nc2-c2cc(Cl)ccc2-3)n1 (centres unmarked) [Compound 280]	20 to 50	< 100	–
COc1ccc2c(c1)-c1nn(C)cc1Cc1c(-c3noc([C@H]4CCCO4)n3)ncn1-2 [Compound 258]	5 to 20	< 100	–
COc1ccc2c(c1)-c1nn(Cc3ccccn3)cc1Cc1c(-c3nc(C(C)C)no3)ncn1-2 [Compound 124]	20 to 50	< 100	–
COc1ccc2c(c1)-c1nn(CC3COC3)cc1Cc1c(-c3noc(C(C)(C)OC)n3)ncn1-2 [Compound 312]	5 to 20	< 100	–
COCCn1cc2c(n1)-c1cc(OC)ccc1-n1cnc(-c3noc(C(C)C)n3)c1C2 [Compound 110]	20 to 50	< 100	–
Clc1ccc2c(c1)-c1[nH]ncc1Cc1c(-c3cnco3)ncn1-2 [Compound 93]	–	–	activation at 0.1 µM (GABAA R (α5β2γ2); [2]): 5 to 20%; Ki (α5β3γ2 GABAA R; [3]): < 100 nM
COc1ccc(Cn2ncc3c2-c2cc(OC)ccc2-n2cnc(-c4noc(COCC(F)(F)F)n4)c2C3)cc1 [Compound 173]	5 to 20	< 100	–
COCc1nc(-c2ncn3c2Cc2cn(C)nc2-c2cc(Cl)ccc2-3)no1 [Compound 155]	20 to 50	< 100	–
FC(F)(F)c1noc(-c2ncn3c2Cc2cn[nH]c2-c2cc(Cl)ccc2-3)n1 [Compound 106]	20 to 50	< 100	–
COc1ccc2c(c1)-c1nn(Cc3ccccc3)cc1Cc1c(-c3cnn(Cc4ccccc4)c3)ncn1-2 [Compound 76]	–	–	activation at 0.1 µM (GABAA R (α5β2γ2); [2]): 20 to 50%; Ki (α5β3γ2 GABAA R; [3]): < 100 nM
Cc1nnc(-c2ncn3c2Cc2cn(C)nc2-c2cc(Cl)ccc2-3)o1 [Compound 209]	20 to 50	< 100	–
COc1ccc2c(c1)-c1[nH]ncc1Cc1c(C3=N[C@H](c4ccccc4)CO3)ncn1-2 [Compound 14]	5 to 20	< 100	–
COc1ccc2c(c1)-c1nn(CC3CCCO3)cc1Cc1c(-c3nc(C(F)(F)F)no3)ncn1-2 (centres unmarked) [Compound 264]	5 to 20	< 100	–
COc1ccc2c(c1)-c1nn(Cc3ccc(F)cc3)cc1Cc1c(-c3nc(C)no3)ncn1-2 [Compound 23]	5 to 20	< 100	–
Cn1cc2c(n1)-c1cc(Cl)ccc1-n1cnc(-c3nc(CN4CCOCC4)co3)c1C2 [Compound 276]	20 to 50	< 100	–
Cc1nc(-c2ncn3c2Cc2cn[nH]c2-c2cc(Cl)ccc2-3)no1 [Compound 86]	5 to 20	< 100	–
Clc1ccc2c(c1)-c1nn(CC3CCCO3)cc1Cc1c(-c3noc(C4COCCO4)n3)ncn1-2 (centres unmarked) [Compound 305]	5 to 20	< 100	–
COc1ccc2c(c1)-c1[nH]ncc1Cc1c(-c3noc(C(F)(F)F)n3)ncn1-2 [Compound 87]	–	–	activation at 0.1 µM (GABAA R (α5β2γ2); [2]): 20 to 50%; Ki (α5β3γ2 GABAA R; [3]): < 100 nM
CCn1cc2c(n1)-c1cc(OC)ccc1-n1cnc(-c3noc(C(C)(C)OC)n3)c1C2 [Compound 255]	5 to 20	< 100	–
COc1ccc2c(c1)-c1[nH]ncc1Cc1c(-c3noc(COCC(F)(F)F)n3)ncn1-2 [Compound 174]	20 to 50	< 100	–
Cc1noc(-c2ncn3c2Cc2cn(C)nc2-c2cc(Cl)ccc2-3)n1 [Compound 121]	20 to 50	< 100	–

Structure (SMILES)	activation at 0.1 µM (GABAA R (α5β2γ2); [1]) [%]	Ki (α5β3γ2 GABAA R) [nM]	further results
Clc1ccc2c(c1)-c1[nH]ncc1Cc1c(-c3ncco3)ncn1-2 [Compound 55]	5 to 20	< 100	–
Cn1cc2c(n1)-c1cc(Cl)ccc1-n1cnc(-c3nc(C(C)(C)C)no3)c1C2 [Compound 113]	20 to 50	< 100	–
COc1ccc2c(c1)-c1nn(CC3CCOC3)cc1Cc1c(-c3ncc(C)o3)ncn1-2 (centres unmarked) [Compound 287]	–	–	activation at 0.1 µM (GABAA R (α5β2γ2); [2]): 20 to 50%; Ki (α5β3γ2 GABAA R; [3]): < 100 nM
CCn1cc2c(n1)-c1cc(Cl)ccc1-n1cnc(-c3noc(COC4CCCC4)n3)c1C2 [Compound 194]	20 to 50	< 100	–
Cn1cc2c(n1)-c1cc(Cl)ccc1-n1cnc(-c3noc(C4COCCO4)n3)c1C2 (centres unmarked) [Compound 213]	> 50	< 100	–
COc1ccc2c(c1)-c1nn(CC3CCCO3)cc1Cc1c(-c3nnc(C(F)(F)F)o3)ncn1-2 (centres unmarked) [Compound 302]	5 to 20	< 100	–
COCc1noc(-c2ncn3c2Cc2cn(C)nc2-c2cc(OC)ccc2-3)n1 [Compound 170]	20 to 50	< 100	–
Clc1ccc2c(c1)-c1[nH]ncc1Cc1c(-c3nc(C4CCCC4)no3)ncn1-2 [Compound 115]	5 to 20	< 100	–
COc1ccc2c(c1)-c1[nH]ncc1Cc1c(-c3nc(C(F)(F)F)no3)ncn1-2 [Compound 45]	20 to 50	< 100	–
Cn1cc2c(n1)-c1cc(Cl)ccc1-n1cnc(-c3noc(C4(F)CC4)n3)c1C2 [Compound 218]	20 to 50	< 100	–
CN(C)Cc1coc(-c2ncn3c2Cc2cn(C)nc2-c2cc(Cl)ccc2-3)n1 [Compound 277]	20 to 50	< 100	–
COCc1coc(-c2ncn3c2Cc2cn(C)nc2-c2cc(OC)ccc2-3)n1 [Compound 269]	5 to 20	< 100	–
Clc1ccc2c(c1)-c1nn(Cc3ccccn3)cc1Cc1c(-c3nc(C4CC4)no3)ncn1-2 [Compound 135]	5 to 20	< 100	–
CCn1cc2c(n1)-c1cc(Cl)ccc1-n1cnc(C3=N[C@H](C(C)C)CO3)c1C2 [Compound 177]	5 to 20	< 100	–
COc1ccc2c(c1)-c1[nH]ncc1Cc1c(C#Cc3ccnn3C)ncn1-2 [Compound 39]	–	–	activation at 0.1 µM (GABAA R (α5β2γ2); [2]): 20 to 50%; Ki (α5β3γ2 GABAA R; [3]): < 100 nM
COc1ccc2c(c1)-c1nn(C)cc1Cc1c(-c3nnc(C(F)(F)F)o3)ncn1-2 [Compound 289]	5 to 20	< 100	–
CC(C)c1noc(-c2ncn3c2Cc2cn(C)nc2-c2cc(Cl)ccc2-3)n1 [Compound 103]	–	–	activation at 0.1 µM (GABAA R (α5β2γ2); [2]): 5 to 20%; Ki (α5β3γ2 GABAA R; [3]): < 100 nM
CCn1cc2c(n1)-c1cc(OC)ccc1-n1cnc(-c3nc(C(C)C)no3)c1C2 [Compound 151]	5 to 20	< 100	–
COc1ccc2c(c1)-c1nn(C)cc1Cc1c(-c3noc([C@@H]4CCCO4)n3)ncn1-2 [Compound 259]	5 to 20	< 100	–
Cn1cc2c(n1)-c1cc(Cl)ccc1-n1cnc(-c3noc(COC4CCCC4)n3)c1C2 [Compound 211]	20 to 50	< 100	–
COc1ccc2c(c1)-c1nn(CC3CCCO3)cc1Cc1c(-c3noc(C4COC4)n3)ncn1-2 (centres unmarked) [Compound 294]	> 50	< 100	–
CC(C)c1noc(-c2ncn3c2Cc2cn[nH]c2-c2cc(Cl)ccc2-3)n1 [Compound 34]	20 to 50	< 100	–
Clc1ccc2c(c1)-c1[nH]ncc1Cc1c(C#Cc3cccnc3)ncn1-2 [Compound 64]	> 50	< 100	–
